In US20250026724A1, “(1,4,5-TRISUBSTITUTED 1H-PYRAZOL-3-YL)OXY-2-ALKYLTHIOALKYL ACIDS AND -ALKYL ACID DERIVATIVES, SALTS THEREOF AND USE THEREOF AS ACTIVE HERBICIDAL INGREDIENTS” (BAYER AKTIENGESELLSCHAFT, priority 2021, published 2025):

How the values were obtained:
Assay type in all cases: in vivo
[1] = tested on: Alopecurus myosuroides (ALOMY); assay: Post-emergence herbicidal action, greenhouse pot trial; details: Alopecurus myosuroides, 504 h, 320 g/ha, visual rating after about 3 weeks, read-out: Post-emergence effect at 320 g/ha against ALOMY in %
Method in brief: (§1)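 Greenhouse-grown plants, sown in sandy loam, sprayed at the one-leaf stage (2–3 weeks after sowing) with WP or EC formulations in water plus 0.5% additive, 600 l/ha. Rates of 320 g/ha or lower. Visual rating after about 3 weeks versus untreated controls (100% = dead, 0% = as control).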

[2] = tested on: Lolium rigidum (LOLRI); assay: as above; details: Lolium rigidum, 504 h, 320 g/ha, visual rating after about 3 weeks, read-out: Post-emergence effect at 320 g/ha against LOLRI in %
Method in brief: as §1

[3] = tested on: Matricaria inodora (MATIN); assay: as above; details: Tripleurospermum inodorum, 504 h, visual rating after about 3 weeks
Method in brief: as §1

[4] = tested on: Pharbitis purpurea (PHBPU); assay: as above; details: Ipomoea purpurea, 504 h, 320 g/ha, visual rating after about 3 weeks, read-out: Post-emergence effect at 320 g/ha against PHBPU in %
Method in brief: as §1

[5] = tested on: Abutilon theophrasti (ABUTH); assay: as above; details: Abutilon theophrasti, 504 h, 320 g/ha, visual rating after about 3 weeks, read-out: Post-emergence effect at 320 g/ha against ABUTH in %
Method in brief: as §1

[6] = tested on: Polygonum convolvulus (POLCO); assay: as above; details: Fallopia convolvulus, 504 h, visual rating after about 3 weeks
Method in brief: as §1

[7] = tested on: Setaria viridis (SETVI); assay: as above; details: Setaria viridis, 504 h, 320 g/ha, visual rating after about 3 weeks, read-out: Post-emergence effect at 320 g/ha against SETVI in %
Method in brief: as §1

[8] = tested on: Echinochloa crus-galli (ECHCG); assay: as above; details: Echinochloa crus-galli, 504 h, visual rating after about 3 weeks
Method in brief: as §1

[9] = tested on: Viola tricolor (VIOTR); assay: as above; details: Viola tricolor, 504 h, 320 g/ha, read-out: Post-emergence effect against VIOTR
Method in brief: as §1

[10] = tested on: Amaranthus retroflexus (AMARE); assay: Pre-emergence herbicidal effect, greenhouse pot trial; details: visual rating after about 3 weeks vs untreated controls
Text: (§2) Seeds of monocotyledonous and dicotyledonous weed plants and crop plants are placed in plastic or organic planting pots and covered with soil. The compounds of the invention, formulated in the form of wettable powders (WP) or as emulsion concentrates (EC), are then applied to the surface of the covering soil as aqueous suspension or emulsion with addition of 0.5% additive at a water application rate equivalent to 600 1/ha. After the treatment, the pots are placed in a greenhouse and kept under good growth conditions for the trial plants. After about 3 weeks, the effect of the preparations is rated visually in comparison with untreated controls as percentages. For example, 100% activity=the plants have died, 0% activity=like control plants.
(§3) Tables A1 and A2 below show the effects of selected compounds of the general formula (I) according to Table 1 on various harmful plants and at an application rate corresponding to 320 g/ha or lower, which were obtained by the trial procedure specified above. The appendices “a” and “b” give differentiation by dosage used with otherwise the same harmful plants tested.
(§4) As shown by the results from Tables A1 and A2, compounds of the invention have good pre-emergence herbicidal efficacy against harmful plants, for example against harmful plants such as Amaranthus retroflexus (AMARE) and Polygonum convolvulus (POLCO).

[11] = tested on: Polygonum convolvulus (POLCO); assay: as above; details: visual rating after about 3 weeks vs untreated controls
Text: as §2, §3, §4

[12] = tested on: Oryza sativa (ORYSA); assay: Post-emergence crop plant compatibility, greenhouse pot trial; details: in comparison to untreated controls
Method in brief: (§5)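 Visual % damage versus untreated plants (0% = like control, 100% = died), scored about 3 weeks after post-emergence spraying at the one-leaf stage. Compounds applied as WP or EC with 0.5% additive, 600 l/ha; letters a, b, c mark different doses.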

[13] = tested on: Zea mays (ZEAMX); assay: as above; details: in comparison to untreated controls
Method in brief: as §5

[14] = tested on: Glycine max (GLXMA); assay: as above; details: in comparison to untreated controls
Method in brief: as §5

[15] = tested on: Brassica napus (BRSNW); assay: as above; details: 20 g/ha, in comparison to untreated controls
Method in brief: as §5

[16] = tested on: Triticum aestivum (TRZAS); assay: as above; details: post-emergence; for Post-emergence effect against TRZAS (crop plant compatibility): in comparison to untreated controls; for Post-emergence effect at 320 g/ha against TRZAS in %: crop plant compatibility (effect on crop vs untreated controls)
Method in brief: as §5

SMILES	Post-emergence effect against ORYSA (crop plant compatibility) ([12]; 20 g/ha)	Post-emergence effect against ORYSA (crop plant compatibility) ([12]; 80 g/ha)	Post-emergence effect against ORYSA (crop plant compatibility) ([12]; 320 g/ha)	Post-emergence effect against ZEAMX (crop plant compatibility) ([13]; 20 g/ha)	Post-emergence effect against ZEAMX (crop plant compatibility) ([13]; 80 g/ha)	Post-emergence effect against ZEAMX (crop plant compatibility) ([13]; 320 g/ha)	Post-emergence effect against GLXMA (crop plant compatibility) ([14]; 20 g/ha)	Post-emergence effect against GLXMA (crop plant compatibility) ([14]; 80 g/ha)	Post-emergence effect against BRSNW (crop plant compatibility) [15]	Post-emergence effect against TRZAS (crop plant compatibility) ([16]; 20 g/ha)	Post-emergence effect against TRZAS (crop plant compatibility) ([16]; 80 g/ha)	Post-emergence effect at 320 g/ha against TRZAS in % [16]	further results
CCOC(=O)C(Oc1nn(-c2ccccc2F)c(-c2ccc(F)nc2)c1Br)SC (centres unmarked) [Example I-01]													pest or weed control at 320 g/ha [1]: 80%; pest or weed control at 320 g/ha [2]: 80%; pest or weed control at 80 g/ha ([3]; 80 g/ha, read-out: Post-emergence effect at 80 g/ha against MATIN in %): 80%; pest or weed control at 320 g/ha ([3]; 320 g/ha, read-out: Post-emergence effect at 320 g/ha against MATIN in %): 80%; pest or weed control at 320 g/ha [4]: 90%; pest or weed control at 320 g/ha [5]: 80%; pest or weed control at 80 g/ha ([6]; 80 g/ha, read-out: Post-emergence effect at 80 g/ha against POLCO in %): 80%; pest or weed control at 320 g/ha ([6]; 320 g/ha, read-out: Post-emergence effect at 320 g/ha against POLCO in %): 80%; pest or weed control at 320 g/ha [7]: 80%; pest or weed control at 80 g/ha ([8]; 80 g/ha, read-out: Post-emergence effect at 80 g/ha against ECHCG in %): 80%; pest or weed control at 320 g/ha ([8]; 320 g/ha, read-out: Post-emergence effect at 320 g/ha against ECHCG in %): 80%; pest or weed control at 320 g/ha [9]: 80%; Pre-emergence effect at 80 g/ha against AMARE in % ([10]; 80 g/ha): 90%; Pre-emergence effect at 320 g/ha against AMARE in % ([10]; 320 g/ha): 100%; Pre-emergence effect at 80 g/ha against POLCO in % ([11]; 80 g/ha): 80%; Pre-emergence effect at 320 g/ha against POLCO in % ([11]; 320 g/ha): 80%
CCOC(=O)C(Oc1nn(-c2ccc(Cl)cc2F)c(-c2ccc(F)cc2F)c1Br)SC (centres unmarked) [Example I-12]	0%	0%	0%	0%	0%	0%	0%	0%	0%	0%	0%	0%	Post-emergence effect against GLXMA (crop plant compatibility) ([14]; 320 g/ha): 0%
CCOC(=O)C(Oc1nn(-c2ncccc2F)c(-c2ccc(Cl)cc2)c1Br)SC (centres unmarked) [Example I-15]	0%	0%	0%	0%	0%	10%	0%	10%	0%	0%	0%	10%	
